Experiments:
[1] = system: IL-2 stimulated pSTAT5 in Tall-1 T cells; test: Cellular JAK3 potency assay: inhibition of IL-2 stimulated pSTAT5 in Tall-1 T cells; format: cell-based, human; details: for IC50: Homo sapiens, TALL-1, IL-2 stimulated pSTAT5 in Tall-1 T cells, read-out: Tall-1 (pIC50) (converted)
Experimental: The potency of test compounds for inhibition of interleukin-2 (IL-2) stimulated STAT5 phosphorylation was measured in the Tall-1 human T cell line (DSMZ) using AlphaLisa. Because IL-2 signals through JAK3, this assay provides a measure of JAK3 cellular potency.
Compounds were serially diluted in DMSO and dispensed acoustically to empty wells. Assay media (phenol red-free DMEM (Life Technologies) supplemented with 10% FBS (ATCC)) was dispensed (4 μL/well) and plates shaken at 900 rpm for 10 mins. Cells were seeded at 45,000 cells/well in assay media (4 μL/well), and incubated at 37° C., 5% CO2 for 1 hour, followed by the addition of IL-2 (R&D Systems; final concentration 300 ng/ml) in pre-warmed assay media (4 μL) for 30 minutes. After cytokine stimulation, cells were lysed with 6 ul of 3× AlphaLisa Lysis Buffer (PerkinElmer) containing 1× PhosStop and Complete tablets (Roche). The lysate was shaken at 900 rpm for 10 minutes at room temperature (RT). Phosphorylated STAT5 was measured via the pSTAT5 AlphaLisa kit (PerkinElmer). Freshly prepared acceptor bead mixture was dispensed onto lysate (5 μL) under green filtered <100 lux light. Plates were shaken at 900 rpm for 2 mins, briefly spun down, and incubated for 2 hrs at RT in the dark. Donor beads were dispensed (5 μL) under green filtered <100 lux light. Plates were shaken at 900 rpm for 2 minutes, briefly spun down, and incubated overnight at RT in the dark.
To determine the inhibitory potency of test compounds in response to IL-2, the average emission intensity of beads bound to pSTAT5 was measured in a human T cell line. IC50 values were determined from analysis of the inhibition curves of signal intensity versus compound concentration. Data are expressed as pIC50 (negative decadic logarithm IC50) values (mean±standard deviation).

[2] = molecular target: T1, JAK3 (Homo sapiens, UniProt P52333); test: Biochemical JAK3 kinase assay (LanthaScreen); set-up: GST; purchased Life Technologies; details: for Ki: read-out: JAK 3 (pKi) (converted); for JAK3 (pKi)-JAK1 (pKi): selectivity: difference of pKi JAK3 and pKi JAK1
T1 sequence (P52333 1-1124): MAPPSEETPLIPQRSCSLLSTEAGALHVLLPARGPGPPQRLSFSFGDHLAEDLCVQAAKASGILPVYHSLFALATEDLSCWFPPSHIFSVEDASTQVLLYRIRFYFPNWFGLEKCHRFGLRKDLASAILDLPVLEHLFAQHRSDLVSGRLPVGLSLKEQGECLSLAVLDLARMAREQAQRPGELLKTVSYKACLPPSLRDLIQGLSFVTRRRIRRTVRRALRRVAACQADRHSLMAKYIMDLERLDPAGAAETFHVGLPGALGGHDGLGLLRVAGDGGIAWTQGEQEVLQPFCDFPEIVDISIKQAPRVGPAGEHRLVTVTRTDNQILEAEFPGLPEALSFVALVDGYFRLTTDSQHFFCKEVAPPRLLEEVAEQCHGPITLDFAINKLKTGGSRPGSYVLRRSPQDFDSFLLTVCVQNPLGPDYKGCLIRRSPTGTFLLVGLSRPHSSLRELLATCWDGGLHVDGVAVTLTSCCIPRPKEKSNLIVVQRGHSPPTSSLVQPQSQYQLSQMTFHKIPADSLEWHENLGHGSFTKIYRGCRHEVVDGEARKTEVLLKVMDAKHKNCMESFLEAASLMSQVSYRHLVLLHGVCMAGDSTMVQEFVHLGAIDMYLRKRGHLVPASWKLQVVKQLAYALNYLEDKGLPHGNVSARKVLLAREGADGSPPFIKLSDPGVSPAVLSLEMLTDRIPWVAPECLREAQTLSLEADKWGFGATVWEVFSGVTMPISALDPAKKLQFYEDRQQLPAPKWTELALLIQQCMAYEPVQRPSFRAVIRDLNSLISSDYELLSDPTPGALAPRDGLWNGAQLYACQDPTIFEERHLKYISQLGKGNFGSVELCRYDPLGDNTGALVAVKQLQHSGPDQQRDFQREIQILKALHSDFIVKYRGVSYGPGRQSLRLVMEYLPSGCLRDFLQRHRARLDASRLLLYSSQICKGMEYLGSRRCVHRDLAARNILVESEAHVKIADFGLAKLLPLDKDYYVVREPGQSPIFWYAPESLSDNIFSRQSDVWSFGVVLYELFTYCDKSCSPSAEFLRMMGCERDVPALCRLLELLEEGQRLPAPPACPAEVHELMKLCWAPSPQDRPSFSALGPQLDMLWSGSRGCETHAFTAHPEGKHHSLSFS
Experimental: (§1) A panel of four LanthaScreen JAK biochemical assays (JAK1, 2, 3 and Tyk2) were carried in a common kinase reaction buffer (50 mM HEPES, pH 7.5, 0.01% Brij-35, 10 mM MgCl2, and 1 mM EGTA). Recombinant GST-tagged JAK enzymes and a GFP-tagged STAT1 peptide substrate were obtained from Life Technologies.
(§2) Serially or discretely diluted compounds were pre-incubated with each of the four JAK enzymes and the substrate in white 384-well microplates (Corning) at ambient temperature for 1 h. ATP was subsequently added to initiate the kinase reactions in 10 μL total volume, with 1% DMSO. […] Kinase reactions were allowed to proceed for 1 hour at ambient temperature before a 10 μL preparation of EDTA (10 mM final concentration) and Tb-anti-pSTAT1 (pTyr701) antibody (Life Technologies, 2 nM final concentration) in TR-FRET dilution buffer (Life Technologies) was added. The plates were allowed to incubate at ambient temperature for 1 h before being read on the EnVision reader (Perkin Elmer). Emission ratio signals (520 nm/495 nm) were recorded and utilized to calculate the percent inhibition values based on DMSO and background controls.
(§3) For dose-response analysis, percent inhibition data were plotted vs. compound concentrations, and IC50 values were determined from a 4-parameter robust fit model with the Prism software (GraphPad Software). Results were expressed as pIC50 (negative logarithm of IC50) and subsequently converted to pKi (negative logarithm of dissociation constant, Ki) using the Cheng-Prusoff equation.

[3] = molecular target: T2, JAK1 (Homo sapiens, UniProt P23458); test: Biochemical JAK1 kinase assay (LanthaScreen); details: for Ki: read-out: JAK 1 (pKi) (converted)
T2 construct: GST; purchased Life Technologies
Experimental: as §1, §2, §3

T2 sequence (P23458 whole entry): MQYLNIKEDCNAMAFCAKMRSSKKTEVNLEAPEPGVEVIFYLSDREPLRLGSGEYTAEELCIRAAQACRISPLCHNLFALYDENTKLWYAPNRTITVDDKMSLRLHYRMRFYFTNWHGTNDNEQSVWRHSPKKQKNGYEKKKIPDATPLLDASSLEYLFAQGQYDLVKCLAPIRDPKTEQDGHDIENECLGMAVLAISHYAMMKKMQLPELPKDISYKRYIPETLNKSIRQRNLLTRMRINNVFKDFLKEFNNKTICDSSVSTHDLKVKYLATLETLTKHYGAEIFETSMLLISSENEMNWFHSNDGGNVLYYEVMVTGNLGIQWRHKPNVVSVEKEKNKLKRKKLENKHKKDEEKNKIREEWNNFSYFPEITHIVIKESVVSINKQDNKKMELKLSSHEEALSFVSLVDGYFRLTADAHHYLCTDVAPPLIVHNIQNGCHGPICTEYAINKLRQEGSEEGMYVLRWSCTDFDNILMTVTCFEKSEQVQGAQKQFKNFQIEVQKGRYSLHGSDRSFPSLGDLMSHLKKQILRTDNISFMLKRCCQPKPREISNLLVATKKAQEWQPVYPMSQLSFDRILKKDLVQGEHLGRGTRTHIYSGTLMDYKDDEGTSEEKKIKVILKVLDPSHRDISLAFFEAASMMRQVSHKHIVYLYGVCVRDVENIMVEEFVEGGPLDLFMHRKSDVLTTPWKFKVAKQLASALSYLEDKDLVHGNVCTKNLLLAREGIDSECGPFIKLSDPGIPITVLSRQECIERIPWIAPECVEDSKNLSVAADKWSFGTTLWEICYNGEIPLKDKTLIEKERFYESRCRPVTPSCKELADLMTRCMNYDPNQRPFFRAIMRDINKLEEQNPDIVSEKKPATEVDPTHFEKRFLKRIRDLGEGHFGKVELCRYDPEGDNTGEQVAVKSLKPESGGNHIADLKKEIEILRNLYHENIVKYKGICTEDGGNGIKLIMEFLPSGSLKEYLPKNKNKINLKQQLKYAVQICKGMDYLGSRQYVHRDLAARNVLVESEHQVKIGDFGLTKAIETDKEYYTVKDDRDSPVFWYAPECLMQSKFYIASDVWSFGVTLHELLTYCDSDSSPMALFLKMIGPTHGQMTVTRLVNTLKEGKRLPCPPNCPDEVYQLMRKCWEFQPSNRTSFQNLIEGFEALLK

Compound | IC50 [1] | Ki [2] | JAK3 (pKi)-JAK1 (pKi) [2] | Ki [3] | Tall-1 (pIC50) ([1]; IL-2 stimulated pSTAT5 in Tall-1 T cells) | JAK 3 (pKi) [2] | JAK 1 (pKi) [3]
CN(C)C/C=C/C(=O)N1CC[C@H](Oc2cc(-c3ccc(O)c(Cl)c3)cc3[nH]ncc23)C1 [Compound 1-3] | 31.6 to 200 nM | 0.1 to 1 nM | A (a value of 3 or above) | > 100 nM | – | – | –
CN(C)C/C=C/C(=O)N1CC[C@H](Oc2cc(-c3ccc(O)c(F)c3)cc3[nH]ncc23)C1 [Compound 1-4] | 200 to 1000 nM | 0.1 to 1 nM | A (a value of 3 or above) | > 100 nM | – | – | –
C=CC(=O)N1CC[C@H](Oc2nc(-c3ccc(O)cc3)nc3[nH]ncc23)C1 [Compound 1-6] | 200 to 1000 nM | 0.1 to 1 nM | A (a value of 3 or above) | > 100 nM | – | – | –
CN(C)C/C=C/C(=O)N1CC[C@H](Oc2nc(-c3ccc(O)cc3)cc3[nH]ncc23)C1 [Compound 1-7] | 200 to 1000 nM | 0.1 to 1 nM | B (a value of 2.3 to 3) | > 100 nM | – | – | –
C=CC(=O)N1CC[C@H](Oc2cc(-c3ccc(O)cc3)nc3[nH]ncc23)C1 [Compound 1-9] | – | – | A (a value of 3 or above) | – | C (a pIC50 value between 6 and 6.7 (IC50 between 1 μM and 200 nM)) | A (a pKi value≥10 (Ki≤0.1 nM)) | E (a pKi value of 7 or below (Ki of 100 nM or above))
C[C@@H]1C[C@H](Oc2cc(-c3ccc(O)cc3)cc3[nH]ncc23)CN1C(=O)/C=C/CN(C)C [Compound 1-10] | 200 to 1000 nM | 0.1 to 1 nM | A (a value of 3 or above) | > 100 nM | – | – | –
C=CC(=O)N1C[C@@H](Oc2cc(-c3ccc(O)cc3)cc3[nH]ncc23)C[C@@H]1C [Compound 1-12] | 31.6 to 200 nM | 0.1 to 1 nM | A (a value of 3 or above) | > 100 nM | – | – | –
C=CC(=O)N1CC[C@H](Oc2cc(-c3ccc(O)c(F)c3F)cc3[nH]ncc23)C1 [Compound 1-13] | 31.6 to 200 nM | 0.1 to 1 nM | B (a value of 2.3 to 3) | > 100 nM | – | – | –
C=CC(=O)N1CC[C@H](Oc2cc(-c3cc(F)c(O)c(F)c3)cc3[nH]ncc23)C1 [Compound 1-14] | 31.6 to 200 nM | < 0.1 nM | A (a value of 3 or above) | > 100 nM | – | – | –
C=CC(=O)N1CC[C@H](Oc2cc(-c3ccc(O)c(F)c3)cc3[nH]nc(C)c23)C1 [Compound 1-23] | < 31.6 nM | 0.1 to 1 nM | B (a value of 2.3 to 3) | 10 to 100 nM | – | – | –
C=CC(=O)N1CC[C@H](Oc2nc(-c3ccc(O)cc3)nc3[nH]nc(C(F)F)c23)C1 [Compound 1-25] | 31.6 to 200 nM | 0.1 to 1 nM | A (a value of 3 or above) | > 100 nM | – | – | –

Reference: patent US10392368B2, “Pyrazolo and triazolo bicyclic compounds as JAK kinase inhibitors” (THERAVANCE BIOPHARMA R&D IP, LLC, priority 2017, dated 2019)
